In ChEMBL document CHEMBL5728791, “Heteroaromatic derivatives as NIK inhibitors” (2021):

Target: Mitogen-activated protein kinase kinase kinase 14 (Homo sapiens, UniProt Q99558)
Assay: Inhibition of auto-phosphorylation of recombinant human NF-kappaB-inducing kinase (NIK/MAP3K14) activity: NIK/MAP3K14 auto-phosphorylation activity was measured using the AlphaScreen® (αscreen) format (Perkin Elmer). All compounds tested were dissolved in dimethyl sulfoxide (DMSO) and further dilutions were made in assay buffer. Final DMSO concentration was 1% (v/v) in assays. Assay buffer was 50 mM Tris pH 7.5 containing 1 mM EGTA (ethylene glycol tetraacetic acid), 1 mM DTT (dithiothreitol), 0.1 mM Na3VO4, 5 mM MgCl2, 0.01% Tween® 20. Assays were carried out in 384 well Alphaplates (Perkin Elmer). Incubations consisted of compound, 25 microM Adenosine-5′-triphosphate (ATP), and 0.2 nM NIK/MAP3K14. Incubations were initiated by addition of GST-tagged NIK/MAP3K14 enzyme, carried out for 1 h at 25° C. and terminated by addition of stop buffer containing anti-phospho-IKK Ser176/180 antibody. Protein A Acceptor and Glutathione-Donor beads were added before reading using an EnVision® Multilabel Plate Reader (Perkin Elmer). Signal obtained in the wells containing blank samples was subtracted from all other wells and IC50's were determined by fitting a sigmoidal curve to % inhibition of control versus Log10 compound concentration.

Mitogen-activated protein kinase kinase kinase 14, sequence (Q99558 whole entry): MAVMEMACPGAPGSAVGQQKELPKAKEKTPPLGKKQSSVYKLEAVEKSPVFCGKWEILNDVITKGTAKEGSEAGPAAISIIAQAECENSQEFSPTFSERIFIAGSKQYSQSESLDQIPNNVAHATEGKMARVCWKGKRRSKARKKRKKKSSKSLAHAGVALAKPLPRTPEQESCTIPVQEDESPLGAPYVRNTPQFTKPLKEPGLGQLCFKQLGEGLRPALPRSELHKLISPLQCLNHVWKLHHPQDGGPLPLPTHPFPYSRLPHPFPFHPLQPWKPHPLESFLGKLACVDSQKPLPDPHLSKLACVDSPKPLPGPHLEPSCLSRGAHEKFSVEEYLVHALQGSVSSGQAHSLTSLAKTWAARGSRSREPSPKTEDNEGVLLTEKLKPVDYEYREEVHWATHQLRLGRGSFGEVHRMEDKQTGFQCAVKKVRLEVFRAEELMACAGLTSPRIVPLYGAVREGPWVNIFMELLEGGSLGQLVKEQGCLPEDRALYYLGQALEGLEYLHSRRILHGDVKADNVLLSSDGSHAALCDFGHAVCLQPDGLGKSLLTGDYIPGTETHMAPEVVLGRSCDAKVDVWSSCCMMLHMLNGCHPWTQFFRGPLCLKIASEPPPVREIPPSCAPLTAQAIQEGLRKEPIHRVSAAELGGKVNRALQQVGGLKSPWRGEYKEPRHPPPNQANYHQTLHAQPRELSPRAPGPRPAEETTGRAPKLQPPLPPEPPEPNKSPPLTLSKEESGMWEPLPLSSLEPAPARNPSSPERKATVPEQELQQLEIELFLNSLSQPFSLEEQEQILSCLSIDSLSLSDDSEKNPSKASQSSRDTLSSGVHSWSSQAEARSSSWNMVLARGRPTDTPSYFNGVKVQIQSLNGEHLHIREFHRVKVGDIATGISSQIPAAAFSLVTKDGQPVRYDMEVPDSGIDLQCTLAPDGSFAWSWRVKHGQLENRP

Structure (SMILES)	IC50
COCCCn1nc(C)cc1Nc1nccc(-c2cc(C#N)c3c(c2)[C@@](C)(CO)CN3)n1	4 nM
Cc1nn(C)cc1Nc1nccc(-c2cc(C#N)c3c(c2)C(C)(CO)CN3)n1 (stereo not drawn)	3.2 nM
Cc1cc(Nc2nccc(-c3cc(C#N)c4c(c3)C(C)(CO)CN4)n2)n(CCN(C)C)n1 (stereo not drawn)	21 nM
